Positions count from the first letter of the chain named. Like-named read-outs stand apart in the source and are kept apart here.
How the values were obtained:
[1] = target: T1, human CRBP2 (Homo sapiens, UniProt P50120); experiment: X-ray crystal structures of CRBP2 in complex with ligands (enantiomer seen in binding pocket); settings: racemic mixture used for crystallization
T1 construct: inferred from the Ni-NTA purification; made in house; host or cells: Escherichia coli BL21(DE3)
T1 sequence (P50120 1-134): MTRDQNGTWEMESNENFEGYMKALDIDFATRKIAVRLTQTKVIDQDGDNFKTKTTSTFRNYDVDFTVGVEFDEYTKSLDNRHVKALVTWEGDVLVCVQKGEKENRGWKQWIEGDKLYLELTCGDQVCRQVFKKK
Procedure: The crystallization conditions were identical to those published by Lee et al. ([9]). Human CRBP2 in complexes with nonretinoid ligands were crystallized using the sitting drop vapor diffusion method. Prior to setting up crystallization drops, CRBP2 (9 mg/ml) was incubated with 50 μM of ligand in 10 mM Tris-HCl (pH 8.0) and 150 mM NaCl for 20 min on ice. Protein samples were mixed in a 1:1 ratio with 1 μl of 0.1 M Tris-HCl (pH 8%) and 22–28% polyethylene glycol 3350. The wells were sealed and stored at room temperature. Crystals were collected, cryoprotected in 10% glycerol, 10% polyethylene glycol 2000 (v/v), and flash frozen in liquid nitrogen.
X-ray diffraction data were collected at the Advanced Photon Source Northeastern Collaborative Access Team 24-ID-C and 24-ID-E beamlines. Data reduction was performed using iMosflm software package ([17]). The structures were solved by molecular replacement with PHASER_MR ([18]) and the refined model of CRBP2 [Protein Data Bank (PDB) accession code: 6BTI] as a search model. Adjustments to the protein model were made with COOT ([19]), and the initial model was refined with PHENIX ([20]). […] The coordinates and structure factors for each of the structure analyzed in this report were deposited in the PDB under the following accession codes: 7JVG, 7JVY, 7JWD, 7JWR, 7K3I, 7JX2, and 7JZ5 (Table 2).

[2] = target: T1, human CRBP2; design: method as in PMID 32195347; settings: holo-CRBP2 titrated with ligand, cited from earlier work
[3] = target: T1, human CRBP2; experiment: Chromophore (atROL) replacement fluorescence titration of holo-CRBP2; type: binding; settings: for Kd: holo-CRBP2 titrated with ligand, 25°C, pH 7.4, average of at least three independent titrations, mean ± SD; for fold decrease in affinity (increase in Kd) as compared with 2-AG: ratio of Kd values versus 2-AG
Procedure: (§1) The chromophore replacement assay was performed as described by Silvaroli et al. ([12]). CRBP2 in complex with atROL was excited with photons at a wavelength of 285 nm. Fluorescence emission was monitored at 350 and 480 nm. Titration with an alternative ligand causes liberation of atROL from the binding pocket and lack of fluorescence resonance energy transfer between the tryptophan residues and the retinoid moiety. The net effect is decrease in the fluorescence signal at 480 nm and concomitant increase at 350 nm (Fig. 1A, B). The experiments were performed on PerkinElmer Life Science LS55 spectrofluorometer at 25°C, using a 1 cm quart cuvette. Three microliters of buffer, 67 mM phosphate-buffered saline (pH 7.4%), 5% glycerol (v/v) containing 1 μg/ml of CRBP2 were dispensed into the cuvette. Increasing concentrations of tested compounds were delivered in acetonitrile. […] The obtained fluorescence spectra corrected for the background. Analysis of the changes in the maximum emission values at the different concentrations of ligands was used to calculate Kd values using the saturation single ligand binding model (SigmaPlot 11 software package; Systat Software). Each Kd listed in Table 1 represents an average value obtained from at least three independent titrations.

[4] = target: T2, CRBP2^T51I/V62M (Homo sapiens, UniProt P50120, T52I/V63M); experiment: Chromophore (atROL) replacement fluorescence titration of the mutant protein; type: binding
T2 construct: made in house; host or cells: Escherichia coli BL21(DE3)
T2 sequence (P50120 1-134 T52I/V63M): T1 sequence (P50120 1-134) with T52I, V63M
Description: To introduce substitute mutations T51/I and V62/M, cDNA of CRBP2 was cloned into pCR 2.1 vector (Thermo Fisher Scientific). The mutations were introduced by PCR using 5’ phosphorylated primers of the following sequences: T51/I: forward, […]; reverse, […]; V62/M: forward, […]; reverse, […]. The presence of desired substitutions was verified by sequencing. To obtain mutated proteins, their cDNAs harboring these changes were cloned into pET3b vector and expressed and purified as described above.
as §1, with “cuvette.” for “cuvette. Increasing concentrations of tested compounds were delivered in acetonitrile.”, “Analysis of the changes in the maximum emission values at the different concentrations of ligands was used to calculate Kd values using the saturation single ligand binding model (SigmaPlot 11 software package; Systat Software). Each Kd listed in Table 1 represents an average value obtained from at least three independent titrations.” left out

[5] = target: CRBP1; design: method as in PMID 27830500; settings: atROL binding to CRBP1; cited from earlier work

| Kd [3] | fold decrease in affinity (increase in Kd) as compared with 2-AG [3] | SMILES | other results |
| --- | --- | --- | --- |
| 0.0971 ± 0.0276 µM | – | CCCCC/C=C\C/C=C\CCCCCCCC(=O)OCC(O)CO (stereo not drawn) [1-LG, 1-Linoleoyl glycerol] | – |
| 0.153 ± 0.0073 µM | – | CCCCCCCCCCCCCCCCOCC(O)CO (stereo not drawn) [1-O-HG, 1-O-hexadecyl glycerol] | – |
| 0.172 ± 0.0088 µM | over 6 fold | CCCCCCCCCCCC(=O)OC(CO)CO [2-LaG, 2-Lauroyl glycerol] | – |
| 0.0512 ± 0.0077 µM | – | CCCCCCCCCCCCCCCC(=O)OC(CO)CO [2-PG, 2-Palmitoyl glycerol] | – |
| 0.0548 ± 0.0098 µM | 2 fold | CCCCCCCCCCCCCCCCCC(=O)OC(CO)CO [2-SG, 2-Stearoyl glycerol] | – |
| 0.217 ± 0.0144 µM | eight times higher | CCCCC/C=C\C/C=C\C/C=C\C/C=C\CCCCCC(=O)O [ADA, Docosatetraenoic acid] | – |

Further lines, the molecule ahead of its results:

| SMILES | Kd [3] | fold decrease in affinity (increase in Kd) as compared with 2-AG [3] | other results |
| --- | --- | --- | --- |
| CCCCC/C=C\C/C=C\C/C=C\C/C=C\CCCC(=O)OCC(O)CO (stereo not drawn) [1-AG, 1-Arachidonoyl glycerol] | – | – | enantiomer exclusively present in the binding pocket (electron density) [1]: S-enantiomer; Kd [2]: 0.0379 ± 0.0033 µM |
| CCCCC/C=C\C/C=C\C/C=C\C/C=C\CCCC(=O)SCC(O)CO (stereo not drawn) [1-ASG, Arachidonoyl-1-thio-glycerol] | 0.0893 ± 0.0143 µM | – | fold increase of the Kd value on substitution of the ester group with a thioester bond ([3]; as compared with 1-AG): ~2 fold; enantiomer exclusively present in the binding pocket (electron density) [1]: R-enantiomer |
| CCCCCCCCCCCCCCCCCCCC(=O)OCC(O)CO (stereo not drawn) [1-ArG, 1-Arachidoyl glycerol] | 0.133 ± 0.0331 µM | ~5 fold | – |
| CCCCCCCCCC(=O)OCC(O)CO (stereo not drawn) [1-DG, 1-Decanoyl glycerol] | 0.78 ± 0.0865 µM | 29 fold | – |
| CCCCC/C=C\C/C=C\C/C=C\C/C=C\CCCC(=O)OC(CO)CO [2-AG, 2-Arachidonoyl glycerol] | – | – | Kd ([4]; CRBP2 T51I/V62M double mutant): 0.447 ± 0.0461 µM; fold decrease in the affinity at the mutant ([4]; CRBP2^T51I/V62M versus WT CRBP2): over 16 fold; Kd [2]: 0.0271 ± 0.0025 µM |
| CCCCC/C=C\C/C=C\C/C=C\C/C=C\CCCCOC(CO)CO [2-AGE, 2-Arachidonoyl glycerol ether] | 0.0457 ± 0.0027 µM | – | – |
| CCCCC/C=C\C/C=C\CCCCCCCC(=O)OC(CO)CO [2-LG, 2-Linoleoyl glycerol] | – | – | Kd ([2]; read-out: Kd): 0.04 ± 0.0044 µM |
| CCCCCCCC/C=C\CCCCCCCC(=O)OC(CO)CO [2-OG, 2-Oleoyl glycerol] | – | – | Kd ([2]; read-out: Kd): 0.0654 ± 0.0044 µM |
| CCCCC/C=C\C/C=C\C/C=C\C/C=C\CCCC(=O)NCCO [AEA, Arachidonoyl ethanolamide] | – | ~25 fold | Kd ([2]; read-out: Kd): 0.663 ± 0.024 µM |
| CC1=C(/C=C/C(C)=C/C=C/C(C)=C/CO)C(C)(C)CCC1 [atROL, all-trans-retinol] | – | – | Kd [5]: ~0.01 µM |
